Test results taken from article PMC10498496, “Design and Synthesis of Poly(2,2′-Bipyridyl) Ligands for Induction of Cell Death in Cancer Cells: Control of Anticancer Activity by Complexation/Decomplexation with Biorelevant Metal Cations” (Inorganic Chemistry, 2023).
Where two headings read alike, the source gives them in different places.

Key:
Assay type in all cases: cell-based, human
[1] = system: Jurkat cells; experiment: Annexin V-FITC/PI staining by flow cytometry; conditions: 24 h
Experimental: The cell death in Jurkat cells induced by 1 and cisplatin (after the treatment for 24 h) was characterized by the flow cytometry of Jurkat cells after co-staining with Annexin V-FITC and PI to characterize the early and late apoptosis or necrosis. Each of the four areas in Figure 6 indicates Annexin V-FITC negative and PI signal positive (= necrotic cells) (top left square), Annexin V-FITC positive and PI positive (= late apoptosis) (top right square), Annexin V-FITC negative and PI negative (= alive cells) (bottom left square); and Annexin V-FITC positive and PI signal negative (= early apoptosis cells) (bottom right square), respectively. As summarized in Figure 7, the percentage of late apoptotic cells of the cells that had been treated with cisplatin increased from 15 to 75% at [cisplatin] = 12.5 to 50 μM and the percentage of late apoptotic cells of cells treated with 1 increased from 14 to 65% at = […] to 5 μM.
Figure 6 Jurkat cells were treated with no ligand (a) and with 1 (0.5–5 μM) (b,c) and cisplatin (12.5–50 μM) (d,e) and for 24 h, stained with Annexin V-FITC/PI, and observed by flow cytometry. The four areas in each graph show necrotic cells in the top left square (Annexin V-FITC^-/PI^+), late apoptotic cells in the top right square (Annexin V-FITC^+/PI^+), alive cells in the bottom left square (Annexin V-FITC^–/PI^–), and apoptotic cells in the bottom right square (Annexin V-FITC^+/PI^–). TEXT PRINTED IN THE PICTURE: (b) 1: 1.14 (0.5 μM); 14.7 (0.5 μM); 83.5 (0.5 μM); 0.7 (0.5 μM) | (c) 1: 0.82 (5 μM); 59 (5 μM); 38.5 (5 μM); 1.6 (5 μM) | (d) cisplatin: 4.19 (12.5 μM); 24.3 (12.5 μM); 71.3 (12.5 μM); 0.23 (12.5 μM) | (e) cisplatin: 0.94 (50 μM); 66.2 (50 μM); 32.6 (50 μM); 0.24 (50 μM) DOUBTS OF THE COPYIST ABOUT THIS PICTURE: The quadrant numbers are printed without a measure or unit. In each panel they are given in the order top left, top right, bottom left, bottom right. / Panel (a) Control (1.26, 3.82, 94.9, 0.072) is left out because it is not a substance.
Jurkat cells (1.0 × 10^5 cells/tube) were incubated in 10% FBS RPMI 1640 medium containing solution of 1 ([…]) and cisplatin (0–50 μM) for 24 h. The cells were then centrifuged at 3000 rpm for 5 min at 4 °C, then the supernatant was discarded, and the pellet was resuspended in 200 μL of PBS. The cells were then centrifuged at 3000 rpm for 5 min at 4 °C, then the supernatant was discarded, and the pellet was resuspended in 195 μL of 1 × binding buffer. A 195 μL aliquot of the sample solution was incubated with 5 μL of FITC-conjugated annexin V (Invitrogen) for 15 min at room temperature in the dark. […] 200 μL of the sample solution transferred to culture tube were analyzed by flow cytometry (Becton Dickinson) using Cell Quest Research Software (Becton Dickinson).

[2] = system: A549 cells; experiment: MTT assay, cytotoxicity against A549 cells; conditions: treated for 24 h
Experimental: (§1) Second, we conducted the quantitative evaluation of the cytotoxicity of 1, 2, and 3 against various cancer cell lines by an MTT (3-(4,5-dimethylthiazol-2-yl)-2,5-diphenyltetrazolium bromide) assay. Jurkat, MOLT-4 (these two cell lines are human T-lymphocyte leukemia cells), and U937 (human lymphoma) cells (1.5 × 10^4 cells/well) were incubated in RPMI 1640 medium containing 10% FBS (fetal bovine serum) containing 1, 2, and 3 (0–25 μM) at 37 °C for 24 h, and then treated with the MTT reagent. A549 (human alveolar adenocarcinoma) and IMR-90 (normal human fetal lung fibroblast as model of normal cells) cells (1.5 × 10^4 cells/well) were incubated in DMEM (low glucose) with 10% FBS containing 1, 2, and 3 (0–25 μM), HeLa S3 (human epithelial carcinoma cells) cells (1.5 × 10^4 cells/well) were incubated in MEM with 10% FBS containing these ligands (0–25 μM) for 24 h at 37 °C and then treated with the MTT reagent.
HeLa S3 cells and A549 cells in MEM and DMEM medium with 10% FBS (1.5 × 10^5 cells/mL per one well) were seeded in to 96 well plates and incubated for 24 h, MTT assay of poly(bpy) ligands (0–25 μM), cisplatin (0–100 μM), and actinomycin D (0–10 μM) was performed according to the same procedure described above.

[3] = system: IMR-90 cells; experiment: MTT assay, cytotoxicity against IMR-90 cells (model of normal cells); conditions: MTT, 37 °C, treated for 24 h, read-out: EC50 against IMR-90
Experimental: as §1
IMR-90 cells in DMEM medium with 10% FBS (1.5 × 10^5 cells/mL) were seeded in to 96 well plates and incubated for 24 h at 37 °C, MTT assays with poly(bpy) ligands and their metal complexes (0–100 μM), cisplatin (0–100 μM), and actinomycin D (0–10 μM) were performed following the same procedure described above. These experiments were carried out at least three times. • (b) MTT assay in the presence of a caspase inhibitor. Jurkat cells were pre-treated with Z-VAD-fmk (15 μM) for 3 h, a general caspases inhibitor, followed by the treatment with 1 (1 μM), BABTA-AM (12.5 μM) and cisplatin (50 μM), respectively, for 24 h, and then MTT assay was carried out as described above. • (c) For evaluation of the effect of metal ions on the cytotoxicity of 1, 2, BAPTA, and BAPTA-AM, these ligands were incubated with metal ions such as Cu(NO3)2, Zn(NO3)2, FeSO4, Co(NO3)2, and NiSO4 for 1 h, respectively, and added to Jurkat cells. The whole mixtures were incubated for 12, 24, and 48 h at [ligand] = 0.78–25 μM and at [M^2+] = 1.71–37.5 μM ([ligand]/[M^2+] = 1:1.5). The MTT assays were conducted as described above.

## N.N.[Cl][Pt][Cl] [cisplatin, reference compound]
[1]; 12.5 μM (Figure 7, n = 3)
  percentage of late apoptotic cells: 15%
[1]; 50 μM (Figure 7, n = 3)
  percentage of late apoptotic cells: 75%
[2]; 37 °C
  EC50: > 100 µM
[3]
  EC50: > 100 µM

## c1ccc(-c2ccc(OCc3cc(COc4ccc(-c5ccccn5)nc4)cc(COc4ccc(-c5ccccn5)nc4)c3)cn2)nc1 [compound 1, 1,3,5-Tris(([2,2′-Bipyridin]-5-yloxy)methyl)benzene]
[1]; 0.25 μM (Figure 7, n = 3)
  percentage of late apoptotic cells: 14%
[1]; 5 μM (Figure 7, n = 3)
  percentage of late apoptotic cells: 65%
[2]; Homo sapiens, A549, 37 °C
  EC50: 15 ± 0.79 µM
[3]; Homo sapiens, IMR-90
  EC50: > 100 µM
